In PubChem BioAssay (NCI):
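The compound was tested at five concentrations on cells cultured in 96-well plates, with a 48-hour exposure period. GI50 is the concentration that inhibits growth by half. TGI: total growth inhibition.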

Assays:
Experiment in all cases: inhibition of tumour cell growth, NCI panel, 48 h
786-0 renal = system: 786-0 renal
A498 renal = system: A498 renal
A549 NSCLC = system: A549 NSCLC
ACHN renal = system: ACHN renal
BT-549 breast = system: BT-549 breast
CAKI-1 renal = system: CAKI-1 renal
CCRF-CEM leukemia = system: CCRF-CEM leukemia
COLO 205 colon = system: COLO 205 colon
DU-145 prostate = system: DU-145 prostate
EKVX NSCLC = system: EKVX NSCLC
HCC-2998 colon = system: HCC-2998 colon
HCT-116 colon = system: HCT-116 colon
HCT-15 colon = system: HCT-15 colon
HL-60(TB) leukemia = system: HL-60(TB) leukemia
HOP-62 NSCLC = system: HOP-62 NSCLC
HOP-92 NSCLC = system: HOP-92 NSCLC
HS 578T breast = system: HS 578T breast
HT29 colon = system: HT29 colon
IGROV1 ovarian = system: IGROV1 ovarian
K-562 leukemia = system: K-562 leukemia
KM12 colon = system: KM12 colon
LOX IMVI melanoma = system: LOX IMVI melanoma
M14 melanoma = system: M14 melanoma
MALME-3M melanoma = system: MALME-3M melanoma
MCF7 breast = system: MCF7 breast
MDA-MB-231 breast = system: MDA-MB-231 breast
MDA-MB-435 = system: MDA-MB-435
MOLT-4 leukemia = system: MOLT-4 leukemia
NCI-H226 lung = system: NCI-H226 lung
NCI-H23 lung = system: NCI-H23 lung
NCI-H460 lung = system: NCI-H460 lung
NCI-H522 lung = system: NCI-H522 lung
NCI/ADR-RES ovarian = system: NCI/ADR-RES ovarian
OVCAR-3 ovarian = system: OVCAR-3 ovarian
OVCAR-5 ovarian = system: OVCAR-5 ovarian
OVCAR-8 ovarian = system: OVCAR-8 ovarian
PC-3 prostate = system: PC-3 prostate
RPMI-8226 leukemia = system: RPMI-8226 leukemia
RXF 393 renal = system: RXF 393 renal
SF-268 CNS = system: SF-268 CNS
SF-295 CNS = system: SF-295 CNS
SF-539 CNS = system: SF-539 CNS
SK-MEL-2 melanoma = system: SK-MEL-2 melanoma
SK-MEL-28 melanoma = system: SK-MEL-28 melanoma
SK-MEL-5 melanoma = system: SK-MEL-5 melanoma
SK-OV-3 ovarian = system: SK-OV-3 ovarian
SN12C renal = system: SN12C renal
SNB-19 CNS = system: SNB-19 CNS
SNB-75 CNS = system: SNB-75 CNS
SR leukemia = system: SR leukemia
SW-620 colon = system: SW-620 colon
T-47D breast = system: T-47D breast
TK-10 renal = system: TK-10 renal
U251 CNS = system: U251 CNS
UACC-257 melanoma = system: UACC-257 melanoma
UACC-62 melanoma = system: UACC-62 melanoma
UO-31 renal = system: UO-31 renal

C#CCOc1cccc(Nc2ncc3ncn(C4CCN(C(=O)CCl)C4)c3n2)c1 (centres undefined)
GI50 (786-0 renal): > 62.5 µM | TGI (786-0 renal): > 62.5 µM | GI50 (A498 renal): > 62.5 µM | TGI (A498 renal): > 62.5 µM | GI50 (A549 NSCLC): > 62.5 µM | TGI (A549 NSCLC): > 62.5 µM | GI50 (ACHN renal): 14.6 µM | TGI (ACHN renal): 46.2 µM | GI50 (BT-549 breast): 18.3 µM | TGI (BT-549 breast): > 62.5 µM | GI50 (CAKI-1 renal): > 62.5 µM | TGI (CAKI-1 renal): > 62.5 µM | GI50 (CCRF-CEM leukemia): 2460 nM | TGI (CCRF-CEM leukemia): > 62.5 µM | GI50 (COLO 205 colon): > 62.5 µM | TGI (COLO 205 colon): > 62.5 µM | GI50 (DU-145 prostate): > 62.5 µM | TGI (DU-145 prostate): > 62.5 µM | GI50 (EKVX NSCLC): > 62.5 µM | TGI (EKVX NSCLC): > 62.5 µM | GI50 (HCC-2998 colon): > 62.5 µM | TGI (HCC-2998 colon): > 62.5 µM | GI50 (HCT-116 colon): 21.5 µM | TGI (HCT-116 colon): > 62.5 µM | GI50 (HCT-15 colon): > 62.5 µM | TGI (HCT-15 colon): > 62.5 µM | GI50 (HL-60(TB) leukemia): 22.7 µM | TGI (HL-60(TB) leukemia): > 62.5 µM | GI50 (HOP-62 NSCLC): > 62.5 µM | TGI (HOP-62 NSCLC): > 62.5 µM | GI50 (HOP-92 NSCLC): > 62.5 µM | TGI (HOP-92 NSCLC): > 62.5 µM | GI50 (HS 578T breast): > 62.5 µM | TGI (HS 578T breast): > 62.5 µM | GI50 (HT29 colon): > 62.5 µM | TGI (HT29 colon): > 62.5 µM | GI50 (IGROV1 ovarian): 6.79 µM | TGI (IGROV1 ovarian): > 62.5 µM | GI50 (K-562 leukemia): 17.9 µM | TGI (K-562 leukemia): > 62.5 µM | GI50 (KM12 colon): > 62.5 µM | TGI (KM12 colon): > 62.5 µM | GI50 (LOX IMVI melanoma): 13.2 µM | TGI (LOX IMVI melanoma): > 62.5 µM | GI50 (M14 melanoma): > 62.5 µM | TGI (M14 melanoma): > 62.5 µM | GI50 (MALME-3M melanoma): 8.78 µM | TGI (MALME-3M melanoma): 56.2 µM | GI50 (MCF7 breast): 59.2 µM | TGI (MCF7 breast): > 62.5 µM | GI50 (MDA-MB-231 breast): > 62.5 µM | TGI (MDA-MB-231 breast): > 62.5 µM | GI50 (MDA-MB-435): > 62.5 µM | TGI (MDA-MB-435): > 62.5 µM | GI50 (MOLT-4 leukemia): 11.3 µM | TGI (MOLT-4 leukemia): > 62.5 µM | GI50 (NCI-H226 lung): > 62.5 µM | TGI (NCI-H226 lung): > 62.5 µM | GI50 (NCI-H23 lung): > 62.5 µM | TGI (NCI-H23 lung): > 62.5 µM | GI50 (NCI-H460 lung): > 62.5 µM | TGI (NCI-H460 lung): > 62.5 µM | GI50 (NCI-H522 lung): 7.08 µM | TGI (NCI-H522 lung): 18.1 µM | GI50 (NCI/ADR-RES ovarian): > 62.5 µM | TGI (NCI/ADR-RES ovarian): > 62.5 µM | GI50 (OVCAR-3 ovarian): 37.8 µM | TGI (OVCAR-3 ovarian): > 62.5 µM | GI50 (OVCAR-5 ovarian): > 62.5 µM | TGI (OVCAR-5 ovarian): > 62.5 µM | GI50 (OVCAR-8 ovarian): > 62.5 µM | TGI (OVCAR-8 ovarian): > 62.5 µM | GI50 (PC-3 prostate): > 62.5 µM | TGI (PC-3 prostate): > 62.5 µM | GI50 (RPMI-8226 leukemia): > 62.5 µM | TGI (RPMI-8226 leukemia): > 62.5 µM | GI50 (RXF 393 renal): > 62.5 µM | TGI (RXF 393 renal): > 62.5 µM | GI50 (SF-268 CNS): > 62.5 µM | TGI (SF-268 CNS): > 62.5 µM | GI50 (SF-295 CNS): > 62.5 µM | TGI (SF-295 CNS): > 62.5 µM | GI50 (SF-539 CNS): > 62.5 µM | TGI (SF-539 CNS): > 62.5 µM | GI50 (SK-MEL-2 melanoma): > 62.5 µM | TGI (SK-MEL-2 melanoma): > 62.5 µM | GI50 (SK-MEL-28 melanoma): > 62.5 µM | TGI (SK-MEL-28 melanoma): > 62.5 µM | GI50 (SK-MEL-5 melanoma): > 62.5 µM | TGI (SK-MEL-5 melanoma): > 62.5 µM | GI50 (SK-OV-3 ovarian): > 62.5 µM | TGI (SK-OV-3 ovarian): > 62.5 µM | GI50 (SN12C renal): 29.1 µM | TGI (SN12C renal): > 62.5 µM | GI50 (SNB-19 CNS): > 62.5 µM | TGI (SNB-19 CNS): > 62.5 µM | GI50 (SNB-75 CNS): > 62.5 µM | TGI (SNB-75 CNS): > 62.5 µM | GI50 (SR leukemia): 7.72 µM | TGI (SR leukemia): > 62.5 µM | GI50 (SW-620 colon): 15.4 µM | TGI (SW-620 colon): > 62.5 µM | GI50 (T-47D breast): > 62.5 µM | TGI (T-47D breast): > 62.5 µM | GI50 (TK-10 renal): > 62.5 µM | TGI (TK-10 renal): > 62.5 µM | GI50 (U251 CNS): > 62.5 µM | TGI (U251 CNS): > 62.5 µM | GI50 (UACC-257 melanoma): > 62.5 µM | TGI (UACC-257 melanoma): > 62.5 µM | GI50 (UACC-62 melanoma): > 62.5 µM | TGI (UACC-62 melanoma): > 62.5 µM | GI50 (UO-31 renal): 37.4 µM | TGI (UO-31 renal): > 62.5 µM
